According to patent US20080261862A1, “Materials and Methods for Modulating Signalling by Alpha-V Integring Molecules” (priority 2004, published 2008):
“Also recorded” adds a separate entry of the source.

Assays:
SMS-SB cells [1] = test: Flow cytometry binding of biotinylated peptides to SMS-SB cells; type: cell-based, human
Source text: FIG. 3C:—Binding of biotinylated peptides to pre-B cell lines was detected by addition of PE-streptavidin and flow cytometry; mean fluorescence index (MFI) data were derived using CellQuest software. The flow cytometric plots for binding of peptides #9 (black line), #11 (grey line) and #57 (shaded area) are illustrated (Panel i), and MFI data for binding of the noted peptides to SMS-SB (Panel ii), Blin-1 (Panel iii) and Nalm-6 (Panel iv) are shown. The unique nine amino acid sequence of each biotinylated tridecapeptide is shown with the RKC motif shared by αvβ5 binding peptides shown in bold (Panel ii).
Binding of peptides to cells was visualised by treating cells exposed to biotinylated peptides with fluorochrome-conjugated streptavidin and scoring binding by flow cytometry; mean fluorescence intensity data were obtained using the CellQuest programme. In culture experiments, peptides were used in the 10 nM to […] concentration range and appropriate solvent vehicle controls (e.g., acetonitrile, DMSO) were always performed.

SMS-SB cells [2] = test: Proliferation ([3H]-thymidine incorporation) of low cell density SMS-SB cultures; type: cell-based, human; conditions: 72 hr; for growth / thymidine incorporation of SMS-SB cells: LCD cultures, 2500 cells/well
Protocol: For stimulation experiments, SMS-SB cells were cultured at 2500 cells/100 μl culture (low cell density, LCD) a seeding density at which the cells are prone to apoptose^15. NALM-6 cells were washed extensively in PFHM prior to culture at 2, 500 cells/100 μl culture. Cultures were propagated, in the presence or absence of cytokines, MAbs or peptides, at 37° C. for 72 hours followed by addition of 0.3 μCi/well tritiated thymidine ([^3H]-TdR) for 18 hours prior to harvest; incorporation was determined by liquid scintillation spectrometry. Apoptosis was determined by staining harvested cells with propidium iodide (PI) and Hoechst 33342 for 1 minute prior to analysis on a Coulter Elite flow cytometer as previously described^15. For stromal cell/SMS-SB co-cultures, 6000 stromal cells were seeded into individual wells of a 96-well tray and allowed to adhere for 24 hr; anti-CD23 MAb or isotype matched control and SMS-SB cells were added to the wells to give a total culture volume of 100 μl. SMS-SB cells were added at 5, 25 or 50 cells per well and cultures were allowed to expand over a 2-4 week period.

Molecule	binding of biotinylated peptide to SMS-SB cells (SMS-SB cells [1]; flow cytometry, MFI)	growth / thymidine incorporation of SMS-SB cells (SMS-SB cells [2])	effect of excess RGDS on peptide binding to SMS-SB cells (SMS-SB cells [1]; ten-fold excess / 10 μg/ml RGDS)	effect of RGDS on SMS-SB growth / thymidine incorporation induced by peptides #9 and #12 (SMS-SB cells [2]; 10 μg/ml RGDS)
CKRQFNIWK [9-INV]	does not reduce greatly binding	reduces substantially, but does not ablate, its ability to elevate thymidine incorporation		
RGDS			neither impedes peptide binding to SMS-SB cells; also recorded: fails to block binding of peptide #9 to SMS-SB cells	nor inhibits thymidine incorporation induced by peptides #9 and #12; also recorded: fails to block
fibronectin [Fn]		neither Vn nor Fn sustain the growth of SMS-SB cells		
vitronectin (protein, UniProt P04004 20-478, looked up, extracellular matrix protein, RGD-containing αv ligand) Vitronectin: DQESCKGRCTEGFNVDKKCQCDELCSYYQSCCTDYTAECKPQVTRGDVFTMPEDEYTVYDDGEEKNNATVHEQVGGPSLTSDLQAQSKGNPEQTPVLKPEEEAPAPEVGASKPEGIDSRPETLHPGRPQPPAEEELCSGKPFDAFTDLKNGSLFAFRGQYCYELDEKAVRPGYPKLIRDVWGIEGPIDAAFTRINCQGKTYLFKGSQYWRFEDGVLDPDYPRNISDGFDGIPDNVDAALALPAHSYSGRERVYFFKGKQYWEYQFQHQPSQEECEGSSLSAVFEHFAMMQRDSWEDIFELLFWGRTSAGTRQPQFISRDWHGVPGQVDAAMAGRIYISGMAPRPSLAKKQRFRHRNRKGYRSQRGHSRGRNQNSRRPSRATWLSLFSSEESNLGANNYDDYRMDWLVPATCEPIQSVFFFSGDKYYRVNLRTRRVDTVDPPYPRSIAQYWLGCPAPGHL		neither Vn nor Fn sustain the growth of SMS-SB cells		
